According to PMC6806071 (2019):

Columns and labels:
[1] = system: 56-mer VTD3 aptamer (DNA, aptamer) AGCAGCACAGAGGTCATGGGGGGTGTGACTTTGGTGTGCCTATGCGTGCTACGGAA; assay: curcumin fluorescence displacement; conditions: 0.1 mM NaCl; 5% ethanol; aptamer 100 nM, curcumin 0.6 µM displaced; up to 1 µM
[2] = system: 75-mer BPA aptamer (DNA, aptamer) ATACGAGCTTGTTCAATAGGAAATCACGATTAGGTCCTCCGTCTGTGTGCGGTTGTGGTGATAGTAAGAGCAATC; assay: fluorescence enhancement; conditions: 0.1 mM NaCl; aptamer 100 nM, curcumin 0.6 µM
[3] = system: 56-mer VTD3 aptamer (DNA, aptamer) AGCAGCACAGAGGTCATGGGGGGTGTGACTTTGGTGTGCCTATGCGTGCTACGGAA; assay: fluorescence titration, Langmuir fit; conditions: 0.1 mM NaCl (methods: 0.1 M NaCl); 5% ethanol, 5 and 25 °C; curcumin 0.6 µM; b27 prints 0.7 µM, b25 0.7 nM
[4] = system: 75-mer BPA aptamer (DNA, aptamer) ATACGAGCTTGTTCAATAGGAAATCACGATTAGGTCCTCCGTCTGTGTGCGGTTGTGGTGATAGTAAGAGCAATC; assay: curcumin fluorescence displacement; conditions: 0.1 mM NaCl; 5% ethanol; aptamer 100 nM, curcumin 0.6 µM displaced
[5] = system: Random ssDNA (70-mer) (DNA, single strand) AGGCCTAAGGGCATAATTAGCTCGAGCTCGAAAGGGGTTATATGATGATTTGAATTCATGGGGCCCGACT; assay: curcumin fluorescence displacement; conditions: 0.1 mM NaCl, 5% ethanol, curcumin 0.6 µM, no sensor response
[6] = system: 56-mer VTD3 aptamer (DNA, aptamer) AGCAGCACAGAGGTCATGGGGGGTGTGACTTTGGTGTGCCTATGCGTGCTACGGAA; assay: fluorescence enhancement; CD; conditions: 0.1 M NaCl; 5% ethanol; SYBR Green I 5 µM
[7] = system: 56-mer VTD3 aptamer (DNA, aptamer) AGCAGCACAGAGGTCATGGGGGGTGTGACTTTGGTGTGCCTATGCGTGCTACGGAA; assay: CD; curcumin fluorescence displacement; conditions: 0.1 mM NaCl; CD: aptamer 0.8 µM, VTD3 20 µM; curcumin displaced

C[C@]12CC[C@@H]3c4ccc(O)cc4CC[C@H]3[C@@H]1CC[C@@H]2O
binding [1]: no

COc1cc(/C=C/C(=O)CC(=O)/C=C/c2ccc(O)c(OC)c2)ccc1O
binding [2]: yes | KD [3]: 0.7 nM

C[C@]12C=CC(=O)C=C1CC[C@@H]1[C@@H]2C(=O)C[C@@]2(C)[C@H]1CC[C@]2(O)C(=O)CO
binding [1]: no

CC(=O)[C@H]1CC[C@H]2[C@@H]3CCC4=CC(=O)CC[C@]4(C)[C@H]3CC[C@]12C
binding [1]: no

CC(C)(c1ccc(O)cc1)c1ccc(O)cc1
binding [4]: yes | binding [5]: no

CCCN(CCCN(C)C)c1cc(C=C2Sc3ccccc3N2C)c2ccccc2[n+]1-c1ccccc1
binding [6]: yes

C=C1CC[C@H](O)C/C1=C/C=C1\CCC[C@]2(C)[C@@H]([C@H](C)CCCC(C)C)CC[C@@H]12
binding ([5]; VTD3 up to 1 µM): no | binding [7]: yes

C=C1CC[C@H](O)C/C1=C/C=C1\CCC[C@]2(C)[C@@H]([C@H](C)/C=C/[C@H](C)C(C)C)CC[C@@H]12
binding [1]: no
